Results from patent publication US20220127297A1, “Novel Antibacterial 3"-Derivatives Of 4,6-Disubstituted 2,5-Dideoxystreptamine Aminoglycoside Antibiotics” (AGILeBiotics B.V., priority 2018, published 2022).
Converted amounts (≈) assume the structure as drawn.

Legend:
[1] = system: E. coli (AAC(6′)Ie-APH(2″)Ia); assay: MIC 50, broth micro-dilution, E. coli expressing AAC(6′)Ie-APH(2″)Ia; format: cell-based, Escherichia coli
Protocol: (§1) Plasmid transformation. Approximately 500 ng of the pET-9b(+) (Cat. No. 69432-3, Merck), pAT21-1 (provided by Prof. Dr. Patrice Courvalin, M.D., Pasteur Institute, France; prepared according to Trieu-Cuot et. al, Mol. Gen. Genet. 198(2), 348 (1985)), pBluescript::AAC(6′)-Ie/APH(2″)-Ia (provided by Prof. Dr. Sergei Vakulenko, M.D., University of Notre Dame, Ind., USA; prepared according to S. B. Vakulenko et. al., J. Biol. Chem. 287 (52), 43262 (2012)), pBlue_lpp_aacC3_rrnC and pSET152 (Cat. No. PVT3395, Life Science Market; prepared according to Bierman et al., Gene 116 (1), 43 (1992)) plasmids, encoding APH(3′)-Ia (SEQ ID NO:2), APH(3′)-IIIa (SEQ ID NO:3), AAC(6′)Ie-APH(2″)-Ia (SEQ ID NO:4), AAC(3)-III (SEQ ID NO:1), and AAC(3)-IV (SEQ ID NO:5) respectively, were individually incubated in a vial of competent cells for 15 min on ice. The cells were subsequently heated to 42° C. for 90 s, and cooled on ice for 1 min. After addition of 900 μL LB, the cells were incubated for 1 h at 37° C. and 200 rpm. Cells were plated on LB-agar supplemented with 50 μg/mL KanaA and incubated for 18 h at 37° C. The next day, a single colony was inoculated in 5 mL LB supplemented with 50 μg/mL and grown for 18 h at 37° C. and 200 rpm. A 200 μL sample of each culture was diluted with 200 μL of 40% v/v glycerol in water, and stored at −80° C. The plasmid was purified from the remaining culture using the Plasmid Miniprep kit. Plasmid DNA was investigated by Eurofins Genomics (Germany) to confirm the identity of the aminoglycoside resistance genes.
(§2) 3.1 Against E. coli Strains
(§3) Tested reference compounds. Amikacin sulfate (Cat. No. 01693, Chem-Impex), Gentamicin sulfate (Cat. No. G4918, Sigma Aldrich).
(§4) Microbial strains. E. coli ATCC 25922, E. coli ATCC 25922/pET-9b(+), E. coli ATCC 25922/pAT21-1, E. coli ATCC 25922/pBluescript::AAC(6′)-Ie/APH(2″)-Ia, E. coli ATCC 25922/pBlue_lpp_aacC3_rrnC, E. coli ATCC 25922/pSET152.
(§5) Culture media and equipment. BBL™ Mueller Hinton Broth 2 (Lot. BCBW1143, Cat. No. 70192, Sigma); Kanamycin A (Cat. No. A1493, AppliChem); 96-well deep well plate, 1 mL (Cat. No. 0030506.200, Eppendorf); Plate lids (Cat. No. 0030131.525, Eppendorf); 96-well plate, F-bottom (Cat. No. 781602, Brand; Incubator, Infors Multitron Pro); Laminar flow (Heraeus KS12); UV/VIS meter (Eppendorf BioPhotometer Plus); Platereader (Tecan Sunrise).
(§6) Compound preparation. Compounds were prepared in MH2 media at a concentration of 5 mM and stored at 4° C. For testing, solutions of 128 μM were prepared in MH2. Out of these working solutions, 400 μL was transferred to wells in the first column of 96-well deep well plates. Each compound was transferred in triplicate. Plates were previously filled with 200 μL of MH2 media in all wells except for the wells in the first column. After compound and antibiotic addition, the compounds were serial two-fold diluted by transferring 200 μL from the first to the second column, then from the second to the third column and so on. Finally, 200 μL was removed from the last column.
(§7) Inoculum preparation. Microorganisms used were all revived from 20% glycerol (40% v/v glycerol in water was diluted with MH2) storage at −80° C. by inoculating them in 5 mL MH2. inoculums of E. coli containing a plasmid were selected for by adding 50 μg/mL KanaA. The Inoculums were grown to an optical density (measured by UV/Vis spectroscopy) of 0.6-0.8 at 600 nm. Out of these suspensions, actual inoculums were prepared by diluting them to an optical density (OD) of 0.1 in MH2 media. From these inoculums, 200 μL was transferred to each well, resulting in a final compound concentration range of 64 μM-31.3 nM. All plates were incubated at 900 rpm and 70% rH for 18 h at 37° C.
(§8) MIC determination. After 18 h of growth, 200 μL was transferred to a 96-well F-bottom plate. The optical density was determined by a plate reader at 600 nm, with 10 s shaking before reading. Triplicate measurements were averaged, and a growth curve was plotted in Microsoft Excel. […]

[2] = system: E. coli (APH(3′)Ia); assay: MIC 50, broth micro-dilution, E. coli expressing APH(3′)Ia; format: cell-based, Escherichia coli
Protocol: as §1, §2, §3, §4, §5, §6, §7, §8

[3] = ATCC25922 harboring plasmid encoding AAC(6′)Ie-APH(2″)Ia
[4] = ATCC25922 harboring plasmid encoding APH(3′)Ia
[5] = Escherichia coli, ATCC25922, ATCC25922 harboring plasmid encoding AAC(6′)Ie-APH(2″)Ia

SMILES | MIC50 [1, 3] [µM] | MIC50 [2, 4] [µM] | MIC50 [1, 5] [µM] | MIC50 ([2]; Escherichia coli, ATCC25922, ATCC25922 harboring plasmid encoding APH(3′)Ia) [µM]
NCC[C@H](O)C(=O)N[C@@H]1C[C@H](N)[C@@H](O[C@H]2O[C@H](CN)[C@@H](O)[C@@H](O)[C@H]2O)[C@H](O)[C@H]1O[C@H]1O[C@H](CO)[C@@H](O)[C@H](N)[C@H]1O [ABX3002, 3′Epi-KanaA-AHB] | 16 (≈ 9.37 µg/mL) | 32 (≈ 18.7 µg/mL) | – | –
N=C(N)NC1[C@@H](O)C(OC2[C@@H](F)[C@H](O[C@H]3OC(CN)[C@@H](O)[C@H](O)C3O)C(N)C[C@H]2NC(=O)[C@@H](O)CCN)O[C@H](CO)[C@H]1O (stereo partly drawn) [ABX3003, 3′epi-KanaA-AHB-F-Gua] | – | – | 2 (≈ 1.26 µg/mL) | 8 (≈ 5.04 µg/mL)
NCCC(O)C(=O)NC1CC(N)C(OC2OC(CN)C(O)C(O)C2O)C(F)C1OC1OC(CO)C(O)C(N)C1O (stereo not drawn) [ABX3005, 3′Epi-KanaA-AHB-F] | 4 (≈ 2.35 µg/mL) | 8 to 16 | – | –
NCCC(O)C(=O)NC1CC(N)C(OC2OC(CN)C(O)C(O)C2N)C(O)C1OC1OC(CO)C(O)C(N)C1O (stereo not drawn) [ABX4001, KanaB-AHB] | 4 to 8 | 8 (≈ 4.68 µg/mL) | – | –
NCC[C@H](O)C(=O)N[C@@H]1CC(N)[C@@H](O[C@H]2OC(CN)[C@@H](O)[C@@H](O)C2N)[C@H](O)C1OC1O[C@H](CO)[C@@H](O)C(N)[C@H]1O (stereo partly drawn) [ABX4002, 3′Epi-KanaB-AHB] | 4 to 8 | 8 to 16 | – | –
NCC[C@H](O)C(=O)N[C@@H]1CC(N)[C@@H](O[C@H]2OC(CN)[C@@H](O)[C@@H](O)C2N)[C@H](F)C1OC1O[C@H](CO)[C@@H](O)C(N)[C@H]1O (stereo partly drawn) [ABX4003, 3′Epi-KanaB-AHB-F] | 8 (≈ 4.69 µg/mL) | 8 to 16 | – | –
N=C(N)NC1[C@@H](O)C(OC2[C@@H](F)[C@H](O[C@H]3OC(CN)[C@@H](O)[C@H](O)C3N)C(N)C[C@H]2NC(=O)[C@@H](O)CCN)O[C@H](CO)[C@H]1O (stereo partly drawn) [ABX4004, 3′epi-KanaB-AHB-F-Gua] | 2 (≈ 1.26 µg/mL) | 4 (≈ 2.51 µg/mL) | – | –
N=C(N)N[C@@H]1[C@@H](O)[C@@H](O[C@@H]2[C@@H](O)[C@H](O[C@H]3O[C@H](CN)[C@@H](O)[C@@H](O)[C@H]3N)[C@@H](N)C[C@H]2NC(=O)[C@@H](O)CCN)O[C@H](CO)[C@H]1O [ABX4005, 3′Epi-KanaB-AHB-Gua] | 8 (≈ 5.01 µg/mL) | 16 (≈ 10 µg/mL) | – | –
N=C(N)NC1[C@@H](O)C(OC2[C@@H](F)[C@H](O[C@H]3OC(CN)[C@@H](O)[C@H](O)C3N)C(N)C[C@H]2NC(=O)[C@@H](O)CCN)O[C@H](CO)[C@H]1O (stereo partly drawn) [ABX4006, KanaB-AHB-F-Gua] | – | 1 to 2 | 1 (≈ 0.629 µg/mL) | –
NCCC(O)C(=O)NC1CC(N)C(OC2OC(CN)C(O)C(O)C2N)C(F)C1OC1OC(CO)C(O)C(N)C1O (stereo not drawn) [ABX4007, KanaB-AHB-F] | 2 to 4 | 4 (≈ 2.35 µg/mL) | – | –
N=C(N)NC1[C@@H](O)C(OC2[C@@H](O)[C@H](O[C@H]3OC(CN)[C@@H](O)[C@H](O)C3N)C(N)C[C@H]2NC(=O)[C@@H](O)CCN)O[C@H](CO)[C@H]1O (stereo partly drawn) [ABX4009, KanaB-AHB-Gua] | 2 to 4 | 8 (≈ 5.01 µg/mL) | – | –
NCC[C@H](O)C(=O)N[C@@H]1CC(N)[C@@H](O[C@H]2OC(CN)[C@@H](O)CC2N)[C@H](O)C1OC1O[C@H](CO)[C@@H](O)C(N)[C@H]1O (stereo partly drawn) [ABX5004, Tobra-AHB] | 4 (≈ 2.27 µg/mL) | 4 to 8 | – | –
